# How the values were obtained:
# Type in all cases: cell-based
# NCI-H1299 = assay: MTS assay (cell growth inhibition), NCI-H1299; settings: NCI-H1299 cells, 72 hours incubation with test compound; concentration not given
# Description: (§1) Cells were maintained at 37° C., 5% CO2 in DMEM media supplemented with 1% fetal bovine serum, penicillin/streptomycin and fungizone (Invitrogen). Cells were seeded into 96-well tissue culture plates at 3000 per well and cultured at 37° C. for 18 hours. Test compounds were dissolved and diluted to 300× in DMSO then diluted 1:40 in DMEM. Cells were incubated with test compounds for 72 hours followed by incubation with tetrazolium compound (3-(4,5-dimethylthiazol-2-yl)-5-(3-carboxymethoxyphenyl)-2-(4-sulfophenyl)-2H-tetrazolium, inner salt; MTS) and the electron coupling reagent, phenazine methosulfate (PMS) for 4 hours. […] The ability of compounds to inhibit cell growth in this assay is correlated with the reduction of dehydrogenase enzyme activity found in metabolically active cells. The measurement of the absorbance of the formazan was assessed using an ENVISION™ (Perkin Elmer) microplate reader at 492 nm. The calculated IC50 value is the concentration of the test compound that causes a 50% decrease in the absorbance.
# PC-3 = assay: MTS assay (cell growth inhibition), PC-3; settings: PC-3 cells, 72 hours incubation with test compound; concentration not given
# Description: as §1
# Kato III = assay: MTS assay (cell growth inhibition), Kato III; settings: Kato III cells, 72 hours incubation with test compound; concentration not given
# Description: as §1
# DLD-1 = assay: MTS assay (cell growth inhibition), DLD-1; settings: DLD-1 cells, 72 hours incubation with test compound; concentration not given
# Description: as §1
# MDA-MB = assay: MTS assay (cell growth inhibition), MDA-MB; settings: MDA-MB cells, 72 hours incubation with test compound; concentration not given
# Description: as §1
# PACA-2 = assay: MTS assay (cell growth inhibition), PACA-2; settings: PACA-2 cells, 72 hours incubation with test compound; concentration not given
# Description: as §1
SMILES,MTS CELL KILL DATA (% INHIBITION) NCI-H1299 (NCI-H1299),MTS CELL KILL DATA (% INHIBITION) PC-3 (PC-3),MTS CELL KILL DATA (% INHIBITION) Kato III (Kato III),MTS CELL KILL DATA (% INHIBITION) DLD-1 (DLD-1),MTS CELL KILL DATA (% INHIBITION) MDA-MB (MDA-MB),MTS CELL KILL DATA (% INHIBITION) PACA-2 (PACA-2)
"CC(CCN1C(=O)c2cnc3[nH]ncc3c2C1=O)CC(C)(C)C (stereo not drawn) [Example 117, 7-(3,5,5-trimethylhexyl)pyrazolo[3,4-b]pyrrolo[3,4-d]pyridine-6,8(3H,7H)-dione]",C (C = <50% INHIBITION),A (A = 80-100% INHIBITION),C (C = <50% INHIBITION),C (C = <50% INHIBITION),A (A = 80-100% INHIBITION),C (C = <50% INHIBITION)
"O=C1c2cnc3[nH]nc(-c4ccc(F)c(F)c4)c3c2C(=O)N1CCc1ccccc1 [Example 162, 1-(3,4-difluorophenyl)-7-(2-phenylethyl)pyrazolo[3,4-b]pyrrolo[3,4-d]pyridine-6,8(3H,7H)-dione]",C (C = <50% INHIBITION),C (C = <50% INHIBITION),C (C = <50% INHIBITION),C (C = <50% INHIBITION),C (C = <50% INHIBITION),B (B = 50-79% INHIBITION)
"Cc1ccc(OCCN2C(=O)c3cnc4[nH]ncc4c3C2=O)cc1 [Example 125, 7-[2-(4-methylphenoxy)ethyl]pyrazolo[3,4-b]pyrrolo[3,4-d]pyridine-6,8(3H,7H)-dione]",C (C = <50% INHIBITION),A (A = 80-100% INHIBITION),C (C = <50% INHIBITION),C (C = <50% INHIBITION),A (A = 80-100% INHIBITION),A (A = 80-100% INHIBITION)
"O=C1c2cnc3[nH]nc(-c4cccc(F)c4)c3c2C(=O)N1CCc1ccccc1 [Example 165, 1-(3-fluorophenyl)-7-(2-phenylethyl)pyrazolo[3,4-b]pyrrolo[3,4-d]pyridine-6,8(3H,7H)-dione]",C (C = <50% INHIBITION),A (A = 80-100% INHIBITION),A (A = 80-100% INHIBITION),A (A = 80-100% INHIBITION),A (A = 80-100% INHIBITION),A (A = 80-100% INHIBITION)
"O=C1c2cnc3[nH]ncc3c2C(=O)N1CC1C[C@H]2CC[C@@H]1C2 (stereo partly drawn) [Example 35, 7-[(1R,4S)-bicyclo[2.2.1]hept-2-ylmethyl]pyrazolo[3,4-b]pyrrolo[3,4-d]pyridine-6,8(3H,7H)-dione]",C (C = <50% INHIBITION),C (C = <50% INHIBITION),C (C = <50% INHIBITION),C (C = <50% INHIBITION),C (C = <50% INHIBITION),C (C = <50% INHIBITION)
"O=C1c2cnc3[nH]ncc3c2C(=O)N1CCSc1nc2ccccc2s1 [Example 32, 7-[2-(1,3-benzothiazol-2-ylthio)ethyl]pyrazolo[3,4-b]pyrrolo[3,4-d]pyridine-6,8(3H,7H)-dione]",C (C = <50% INHIBITION),A (A = 80-100% INHIBITION),B (B = 50-79% INHIBITION),C (C = <50% INHIBITION),C (C = <50% INHIBITION),C (C = <50% INHIBITION)
"O=C1c2ccccc2C(=O)N1CCN1C(=O)c2cnc3[nH]ncc3c2C1=O [Example 131, 7-[2-(1,3-dioxo-1,3-dihydro-2H-isoindol-2-yl)ethyl]pyrazolo[3,4-b]pyrrolo[3,4-d]pyridine-6,8(3H,7H)-dione]",A (A = 80-100% INHIBITION),A (A = 80-100% INHIBITION),A (A = 80-100% INHIBITION),A (A = 80-100% INHIBITION),A (A = 80-100% INHIBITION),A (A = 80-100% INHIBITION)
"O=C1NCCN1CCN1C(=O)c2cnc3[nH]ncc3c2C1=O [Example 6, 7-[2-(2-oxoimidazolidin-1-yl)ethyl]pyrazolo[3,4-b]pyrrolo[3,4-d]pyridine-6,8(3H,7H)-dione]",A (A = 80-100% INHIBITION),A (A = 80-100% INHIBITION),A (A = 80-100% INHIBITION),C (C = <50% INHIBITION),A (A = 80-100% INHIBITION),C (C = <50% INHIBITION)
